US9783505B2, “Substituted diaminopyrimidyl compounds, compositions thereof, and methods of treatment therewith” (Signal Pharmaceuticals, LLC, priority 2013, dated 2017)

Biological target: T1, His-PKC-theta (Homo sapiens, UniProt Q04759)
T1 construct: His; purchased Invitrogen
Assay: PKC-theta Assay (384-well time resolved fluorescence, IMAP TR-FRET)
Format: biochemical
Conditions: Table 2; read-out: Act. Level (IC50 in the PKC-theta Assay)
Experimental: PKC-theta Assay. A 384-well time resolved fluorescence assay was used to monitor PKC-theta activity. The PKC-theta assay was run in the following assay buffer: 50 mM HEPES pH 7.6, 10 mM MgCl2, 1 mM DTT, 0.01% Triton X-100, 0.01% BSA and 0.1 mM EDTA. To initiate the reaction, 200 nM of Fam-labeled S6-derived peptide (Molecular Devices) and 10 μM of ATP were mixed with 142 pM of His-PKC-theta (Invitrogen) for a total assay volume of 25 μL in each well. The assay was incubated at room temperature for 2 hours and terminated using a 60 μL/well mixture of Detection Binding Solution: 70% IMAP Progressive Binding Buffer A, 30% IMAP Progressive Binding Buffer B, 1:600 Progressive Binding Reagent, and 1:400 TR-FRET Tb Donor (Molecular Devices). The assay plates were then incubated overnight at room temperature and read on a Perkin-Elmer Envision Reader.

T1 sequence (Q04759 whole entry): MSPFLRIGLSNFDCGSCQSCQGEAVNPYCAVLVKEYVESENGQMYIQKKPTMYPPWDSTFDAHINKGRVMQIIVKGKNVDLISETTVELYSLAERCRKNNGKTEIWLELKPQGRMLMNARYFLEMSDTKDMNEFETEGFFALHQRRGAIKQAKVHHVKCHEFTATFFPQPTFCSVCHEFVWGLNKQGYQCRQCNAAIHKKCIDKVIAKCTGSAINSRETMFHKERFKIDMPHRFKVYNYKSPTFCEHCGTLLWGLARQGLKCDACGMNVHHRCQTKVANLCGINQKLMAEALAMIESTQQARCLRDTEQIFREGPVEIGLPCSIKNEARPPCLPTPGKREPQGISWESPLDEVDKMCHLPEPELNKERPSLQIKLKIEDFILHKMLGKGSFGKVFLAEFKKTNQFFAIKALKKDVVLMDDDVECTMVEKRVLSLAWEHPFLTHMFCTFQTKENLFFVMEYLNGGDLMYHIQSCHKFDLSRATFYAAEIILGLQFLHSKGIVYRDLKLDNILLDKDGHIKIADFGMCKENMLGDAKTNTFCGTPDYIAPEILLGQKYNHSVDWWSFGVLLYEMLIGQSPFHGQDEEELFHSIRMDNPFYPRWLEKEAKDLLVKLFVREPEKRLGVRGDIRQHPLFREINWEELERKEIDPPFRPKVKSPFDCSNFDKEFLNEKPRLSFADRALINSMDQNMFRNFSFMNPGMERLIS

IC50 [nM] | SMILES
< 100 | N#Cc1cnc(NCCc2ccc(F)c(Cl)c2)nc1N[C@H]1CC[C@@H](C(N)=O)CC1 [Cmpd 90]
100 to 800 | N#Cc1cnc(NCCc2ccc(F)cc2)nc1N[C@H]1CC[C@@H](C(N)=O)CC1 [Cmpd 91]
100 to 800 | CC1(C)C[C@H](Nc2nc(NCCc3ccc(F)cc3)ncc2C#N)CC[C@@H]1O [Cmpd 93]
100 to 800 | COc1ccc(CCNc2ncc(C#N)c(N[C@@H]3CC[C@H](O)C(C)(C)C3)n2)cc1 [Cmpd 94]
100 to 800 | COc1cc(CCNc2ncc(C#N)c(N[C@@H]3CC[C@H](O)C(C)(C)C3)n2)ccc1O [Cmpd 95]
100 to 800 | COc1cccc(CCNc2ncc(C#N)c(N[C@@H]3CC[C@H](O)C(C)(C)C3)n2)c1OC [Cmpd 96]
100 to 800 | CC1(C)C[C@H](Nc2nc(NCCc3ccccc3C(F)(F)F)ncc2C#N)CC[C@@H]1O [Cmpd 97]
100 to 800 | CC1(C)C[C@H](Nc2nc(NCCc3ccc(C(F)(F)F)cc3)ncc2C#N)CC[C@@H]1O [Cmpd 99]
100 to 800 | CC1(C)C[C@H](Nc2nc(NCCc3ccc(Cl)cc3Cl)ncc2C#N)CC[C@@H]1O [Cmpd 100]
100 to 800 | CC1(C)C[C@H](Nc2nc(NCCc3ccc(Cl)c(Cl)c3)ncc2C#N)CC[C@@H]1O [Cmpd 101]
100 to 800 | CC1(C)[C@@H](O)C[C@H]1Nc1nc(NCCc2ccc(F)cc2)ncc1C#N [Cmpd 102]
100 to 800 | COc1ccc(CCNc2ncc(C#N)c(N[C@@H]3C[C@H](O)C3(C)C)n2)cc1 [Cmpd 103]
2000 to 10000 | COc1cc(CCNc2ncc(C#N)c(N[C@@H]3C[C@H](O)C3(C)C)n2)ccc1O [Cmpd 104]
800 to 2000 | COc1cccc(CCNc2ncc(C#N)c(N[C@@H]3C[C@H](O)C3(C)C)n2)c1OC [Cmpd 105]
100 to 800 | CC1(C)[C@@H](O)C[C@H]1Nc1nc(NCCc2ccc(Cl)cc2Cl)ncc1C#N [Cmpd 106]
100 to 800 | CC1(C)[C@@H](O)C[C@H]1Nc1nc(NCCc2ccc(Cl)c(Cl)c2)ncc1C#N [Cmpd 107]
800 to 2000 | CC1(C)[C@@H](O)C[C@H]1Nc1nc(NCCc2ccccc2O)ncc1C#N [Cmpd 108]
100 to 800 | COCCOc1ccc(CCNc2ncc(C#N)c(N[C@@H]3C[C@H](O)C3(C)C)n2)cc1 [Cmpd 109]
100 to 800 | CC1(C)[C@@H](O)C[C@H]1Nc1nc(NCCc2ccc(-c3ccccc3)cc2)ncc1C#N [Cmpd 111]
100 to 800 | CC1(C)[C@@H](O)C[C@H]1Nc1nc(NCCc2ccc(S(N)(=O)=O)cc2)ncc1C#N [Cmpd 113]
800 to 2000 | CC1(C)[C@@H](O)C[C@H]1Nc1nc(NCCc2ccc(N3CCCCC3)cc2)ncc1C#N [Cmpd 114]

IC50 [nM] | SMILES
800 to 2000 | CC1(C)[C@@H](O)C[C@H]1Nc1nc(NCCc2ccc(OC3CCCC3)cc2)ncc1C#N [Cmpd 118]
100 to 800 | CC1(C)[C@@H](O)C[C@H]1Nc1nc(NCCc2ccc(Oc3ccccc3)cc2)ncc1C#N [Cmpd 119]
100 to 800 | CC1(C)[C@@H](O)C[C@H]1Nc1nc(NCCc2ccc(-c3ccc(F)cc3)cc2)ncc1C#N [Cmpd 120]
800 to 2000 | Cc1cc(C)n(-c2ccc(CCNc3ncc(C#N)c(N[C@@H]4C[C@H](O)C4(C)C)n3)cc2)n1 [Cmpd 121]
800 to 2000 | CC1(C)[C@@H](O)C[C@H]1Nc1nc(NCCc2ccc(CN3CCCC3=O)cc2)ncc1C#N [Cmpd 123]
100 to 800 | Cc1ncc(-c2ccc(CCNc3ncc(C#N)c(N[C@@H]4C[C@H](O)C4(C)C)n3)cc2)s1 [Cmpd 124]
100 to 800 | CC1(C)[C@@H](O)C[C@H]1Nc1nc(NCCc2cc(C(F)(F)F)cc(C(F)(F)F)c2)ncc1C#N [Cmpd 125]
100 to 800 | CC1(C)[C@@H](O)C[C@H]1Nc1nc(NCCc2cccc3ccccc23)ncc1C#N [Cmpd 128]
100 to 800 | CN(C)c1ccc(CCNc2ncc(C#N)c(N[C@@H]3CC[C@H](O)C(C)(C)C3)n2)cc1 [Cmpd 129]
100 to 800 | CC(=O)Nc1ccc(CCNc2ncc(C#N)c(N[C@@H]3CC[C@H](O)C(C)(C)C3)n2)cc1 [Cmpd 130]
800 to 2000 | CNC(=O)c1cccc(CCNc2ncc(C#N)c(N[C@@H]3CC[C@H](O)C(C)(C)C3)n2)c1 [Cmpd 131]
100 to 800 | CC1(C)C[C@H](Nc2nc(NCCc3ccccc3OC(F)F)ncc2C#N)CC[C@@H]1O [Cmpd 132]
100 to 800 | CN(C)c1ccc(CCNc2ncc(C#N)c(N[C@@H]3C[C@H](O)C3(C)C)n2)cc1 [Cmpd 133]
800 to 2000 | CNC(=O)c1cccc(CCNc2ncc(C#N)c(N[C@@H]3C[C@H](O)C3(C)C)n2)c1 [Cmpd 135]
100 to 800 | CC1(C)[C@@H](O)C[C@H]1Nc1nc(NCCc2ccccc2OC(F)F)ncc1C#N [Cmpd 136]
100 to 800 | COc1cc(CCNc2ncc(C#N)c(N[C@@H]3CC[C@H](O)C(C)(C)C3)n2)ccc1C#N [Cmpd 137]
100 to 800 | CC1(C)C[C@H](Nc2nc(NCCc3ccc(C#N)c(Cl)c3)ncc2C#N)CC[C@@H]1O [Cmpd 139]
100 to 800 | CC1(C)C[C@H](Nc2nc(NCCc3ccc(C#N)c(C(F)(F)F)c3)ncc2C#N)CC[C@@H]1O [Cmpd 140]
100 to 800 | CC1(C)[C@@H](O)C[C@H]1Nc1nc(NCCc2ccc(C#N)c(C(F)(F)F)c2)ncc1C#N [Cmpd 141]
100 to 800 | CC1(C)[C@@H](O)C[C@H]1Nc1nc(NCCc2ccc(C#N)c(Cl)c2)ncc1C#N [Cmpd 142]

Same assay, conditions: read-out: Act. Level (IC50 in the PKC-theta Assay)

IC50 [nM] | SMILES
< 100 | N#Cc1cnc(NCc2cnccc2C(F)(F)F)nc1NC1CC(O)C1 (stereo not drawn) [Cmpd 90]
100 to 800 | CC1(C)[C@H](CO)C[C@@H]1Nc1nc(NCc2cnccc2C(F)(F)F)ncc1C(F)(F)F [Cmpd 91]
100 to 800 | CC1(C)[C@H](O)C[C@H]1Nc1nc(NCc2cncnc2-c2ccc(F)cc2)ncc1C#N [Cmpd 93]
100 to 800 | O[C@H]1C[C@H](Nc2nc(NCc3cnccc3C(F)(F)F)ncc2C(F)(F)F)C1 [Cmpd 94]
100 to 800 | O[C@H]1C[C@@H](Nc2nc(NCc3cnccc3C(F)(F)F)ncc2C(F)(F)F)C1 [Cmpd 95]
100 to 800 | N#Cc1cnc(NCc2cncnc2C(F)(F)F)nc1N[C@H]1CC[C@@H](O)CC1 [Cmpd 96]
100 to 800 | CC1(C)[C@H](O)C[C@@H]1Nc1nc(NCc2cncnc2-c2ccc(F)cc2)ncc1C(F)(F)F [Cmpd 97]
100 to 800 | CC(F)(F)COc1ncncc1CNc1ncc(C#N)c(N[C@H]2C[C@@H](O)C2(C)C)n1 [Cmpd 99]
100 to 800 | CC(C)(O)[C@H]1CC[C@H](Nc2nc(NCc3cnccc3C(F)(F)F)ncc2C#N)CC1 [Cmpd 101]
100 to 800 | COC1CC(Nc2nc(NCc3cnccc3C(F)(F)F)ncc2C(F)(F)F)C1(C)C (stereo not drawn) [Cmpd 102]
100 to 800 | COC1CC(Nc2nc(NCc3cnccc3C(F)(F)F)ncc2C(F)(F)F)C1(C)C (stereo not drawn) [Cmpd 103]
100 to 800 | CC1(C)[C@H](O)C[C@H]1Nc1nc(NCc2c[n+]([O-])ccc2C(F)(F)F)ncc1C(F)(F)F [Cmpd 105]
100 to 800 | C[C@]1(O)CC[C@@H](Nc2nc(NCc3cncnc3C(F)(F)F)ncc2C#N)CC1 [Cmpd 106]
100 to 800 | CC1(C)C(O)C[C@@H]1Nc1nc(NCc2cncnc2OCCC(F)(F)F)ncc1C#N (stereo partly drawn) [Cmpd 107]
100 to 800 | N#Cc1cnc(NCc2cnccc2C(F)(F)F)nc1N[C@H]1C[C@H](O)C1 [Cmpd 108]
100 to 800 | CC(C)(F)c1ncncc1CNc1ncc(C#N)c(N[C@H]2C[C@@H](CO)C2(C)C)n1 [Cmpd 109]
100 to 800 | CC1(C)[C@@H](Nc2nc(NCc3cncnc3-c3ccc(F)cc3)ncc2C#N)C[C@@H]1O [Cmpd 111]

IC50 [nM] | SMILES
100 to 800 | N#Cc1cnc(NCc2ccccc2Oc2ccccc2)nc1N[C@H]1CC[C@@H](O)CC1 [Cmpd 118]
100 to 800 | CC(C)c1ncncc1CNc1ncc(C#N)c(N[C@H]2C[C@@H](O)C2(C)C)n1 [Cmpd 119]
100 to 800 | CC1(C)[C@H](O)C[C@@H]1Nc1nc(NCc2cnccc2C(F)(F)F)ncc1C(F)(F)F [Cmpd 120]
100 to 800 | CC(F)(F)COc1ncncc1CNc1ncc(C#N)c(N[C@H]2C[C@H](O)C2(C)C)n1 [Cmpd 121]
100 to 800 | CCc1ncncc1CNc1ncc(C#N)c(N[C@H]2C[C@@H](O)C2(C)C)n1 [Cmpd 123]
800 to 2000 | N#Cc1cnc(NCc2cnccc2C(F)(F)F)nc1NC12CC3CC(CC(O)(C3)C1)C2 [Cmpd 124]
< 100 | CC1(C)[C@H](O)C[C@H]1Nc1nc(NCc2cncnc2OCCC(F)(F)F)ncc1C(F)(F)F [Cmpd 125]
100 to 800 | CCc1ncncc1CNc1ncc(C#N)c(N[C@@H]2C[C@@H](O)C2(C)C)n1 [Cmpd 128]
100 to 800 | CC(C)(CO)CNc1nc(NCc2cnccc2C(F)(F)F)ncc1C#N [Cmpd 129]
100 to 800 | CC1(C)C(O)C(C)(C)C1Nc1nc(NCc2cnccc2C(F)(F)F)ncc1C#N (stereo not drawn) [Cmpd 130]
100 to 800 | CC1(C)[C@@H](CO)C[C@@H]1Nc1nc(NCc2cnccc2C(F)(F)F)ncc1C(F)(F)F [Cmpd 131]
100 to 800 | CC1(C)[C@H](O)C[C@@H]1Nc1nc(NCc2cncnc2-c2ccc(F)cc2)ncc1C#N [Cmpd 133]
100 to 800 | CCc1ncncc1CNc1ncc(C#N)c(NC2CC(C)(O)C2(C)C)n1 (stereo not drawn) [Cmpd 135]
100 to 800 | CC1(C)[C@H](O)C[C@@H]1Nc1nc(NCc2c[n+]([O-])ccc2C(F)(F)F)ncc1C(F)(F)F [Cmpd 136]
100 to 800 | CC1(C)[C@@H](Nc2nc(NCc3c[n+]([O-])ccc3C(F)(F)F)ncc2C(F)(F)F)C[C@@H]1O [Cmpd 139]
100 to 800 | CC(C)c1ncncc1CNc1ncc(C#N)c(N[C@H]2C[C@@H](CO)C2(C)C)n1 [Cmpd 140]
800 to 2000 | CC1(C)[C@H](CO)C[C@@H]1Nc1nc(NCc2c[n+]([O-])ccc2C(F)(F)F)ncc1C(F)(F)F [Cmpd 141]
